These results are taken from ChEMBL document CHEMBL1201862, “PubChem BioAssay data set” (2004).

Some test systems named below: DLD-1; LXFL 529; KM-20L2; XF498; DMS-273; HOP-18; RXF 631; M19-MEL; DMS-114.
Test in all cases: inhibition of tumour cell growth, NCI panel, 48 h

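The compound was tested at five concentrations on cells cultured in 96-well plates, with a 48-hour exposure period. Abbreviation: GI50, concentration required for 50% inhibition of growth.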 Activity calls are given as the source filed them. Cut-off read from the data, not from the text of the source: active = GI50 up to about 1.1 µM and inactive = higher.

Consider `COc1ccc(/C=C2/CSC/C(=C/c3ccc(OC)c(OC)c3)C2=O)cc1OC`, for which the GI50 in the experiment on DLD-1 is 0.46 µM (active); in the experiment with LXFL 529, 1.93 µM (inactive); with KM-20L2 it was 2.3 µM (inactive); in the experiment on XF498, 11.7 µM (inactive); in the experiment on DMS-273, 1.03 µM (active); with HOP-18, 6.65 µM (inactive). Besides, the GI50 in the experiment on RXF 631 is 1.99 µM (inactive); in the experiment with M19-MEL, 2.14 µM (inactive).

For `O=C1C[C@H](c2ccc(O)c(O)c2)Oc2cc(O)cc(O)c21`, the GI50 in the experiment on DLD-1 was > 100 µM (inactive); in the experiment with LXFL 529 it was > 100 µM (inactive); with KM-20L2 it was > 100 µM (inactive); in the experiment on DMS-273 it was > 100 µM (inactive); in the experiment on HOP-18 it was > 100 µM (inactive); in the experiment on DMS-114, 21.2 µM (inactive). In addition, the GI50 in the experiment with RXF 631 was 64.4 µM (inactive); with M19-MEL it was > 100 µM (inactive).

Take `CC(=O)NCc1c(C(N)=O)ncn1Cc1ccccc1`: the GI50 in the experiment with LXFL 529, with KM-20L2, with XF498, in the experiment with DMS-273, with HOP-18 and in the experiment with DMS-114 was > 100 µM (inactive) throughout. Besides, the GI50 with RXF 631 and in the experiment on M19-MEL was > 100 µM (inactive) each time.

Consider `O/N=C1/C(=C/c2ccc(Oc3ccccc3)cc2)CCCC1C(NO)c1ccc(Oc2ccccc2)cc1` (stereo not given), for which the GI50 in the experiment with DLD-1 was 66.1 µM (inactive); with LXFL 529, 33 µM (inactive); in the experiment on KM-20L2, 11.2 µM (inactive); in the experiment on XF498, 29.7 µM (inactive); in the experiment on DMS-273, 28.6 µM (inactive); in the experiment with HOP-18, > 100 µM (inactive). Besides, the GI50 is 26.4 µM (inactive) in the experiment on DMS-114, 33.2 µM (inactive) in the experiment with RXF 631 and 39.6 µM (inactive) with M19-MEL.

For the compound `CCS/C(=N\c1ccccc1)SC`, the GI50 with DLD-1, in the experiment with LXFL 529, in the experiment with KM-20L2, in the experiment with XF498, in the experiment with DMS-273 and with HOP-18 was > 100 µM (inactive) in each case. The GI50 in the experiment on DMS-114, in the experiment with RXF 631 and in the experiment on M19-MEL was > 100 µM (inactive) in each case.

In the case of `O=C1c2ccccc2C(=O)N1C/C=N/NS(=O)(=O)c1ccc2ccccc2c1`, the GI50 in the experiment with DLD-1, in the experiment on LXFL 529, in the experiment on KM-20L2, in the experiment with XF498, in the experiment on DMS-273 and with HOP-18 was > 100 µM (inactive) each time. Further, the GI50 in the experiment with RXF 631 and in the experiment with M19-MEL was > 100 µM (inactive) throughout.

`N#CC(/C(CCCC(=O)Nc1cccc([N+](=O)[O-])c1)=N/NC(=O)c1cc2ccccc2cc1O)c1ccccc1` (stereo not given): the GI50 in the experiment with DLD-1 was 36.7 µM (inactive); in the experiment with LXFL 529, 27.2 µM (inactive); in the experiment with KM-20L2, 38 µM (inactive); with XF498, 25 µM (inactive); in the experiment with HOP-18, 18.3 µM (inactive); in the experiment with DMS-114, 20.2 µM (inactive). For the same compound, the GI50 in the experiment on RXF 631 is 29.8 µM (inactive); in the experiment with M19-MEL, 17.9 µM (inactive).

For the compound `CC(=O)Oc1ccc(O)c2c1CCCC2`, the GI50 with DLD-1 was 20.7 µM (inactive); in the experiment with LXFL 529, 16.3 µM (inactive); in the experiment with KM-20L2 it was > 100 µM (inactive); in the experiment on XF498, 16.4 µM (inactive); with DMS-273 it was > 46.1 µM (inactive); in the experiment with HOP-18 it was 21.6 µM (inactive). In addition, the GI50 in the experiment with DMS-114 is 30.2 µM (inactive); with RXF 631, > 100 µM (inactive); with M19-MEL it was 13.4 µM (inactive).

As to `O=c1c2ccccc2oc2nccnc12`, the GI50 with DLD-1, with LXFL 529, with KM-20L2, with XF498, in the experiment with DMS-273 and in the experiment on HOP-18 was > 100 µM (inactive) throughout. Also, the GI50 in the experiment with DMS-114, in the experiment on RXF 631 and in the experiment on M19-MEL was > 100 µM (inactive) each time.

As for `COC1=CC(C2c3cc4c(cc3[C@@H](Nc3ccc([N+](=O)[O-])cc3)C3COC(=O)[C@H]23)OCO4)=CC(=O)C1=O` (stereo not given in full), the GI50 is 14 µM (inactive) in the experiment on DLD-1; 16.4 µM (inactive) with LXFL 529; 9.1 µM (inactive) with KM-20L2; 5.5 µM (inactive) in the experiment with XF498; 0.697 µM (active) with DMS-273; 53.6 µM (inactive) in the experiment with HOP-18. Moreover, the GI50 in the experiment with DMS-114 is 2.57 µM (inactive); in the experiment on RXF 631 it was 2.29 µM (inactive); in the experiment on M19-MEL, 6.4 µM (inactive).
